Assay results published in PubChem BioAssay (NCI).
Several values for one entry are separate records, joined by “and”; a condition that tells them apart may be missing. Equal values may be shown once.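 Five concentrations, 48 hours, 96-well plates. Here, GI50 denotes the concentration required for 50% inhibition of growth. TGI: concentration producing complete growth inhibition.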

Legend:
Test in all cases: NCI anticancer screen, dose series, 48 h
BT-549 breast = tested on: BT-549 breast
CCRF-CEM leukemia = tested on: CCRF-CEM leukemia
COLO 205 colon = tested on: COLO 205 colon
HOP-62 NSCLC = tested on: HOP-62 NSCLC
LOX IMVI melanoma = tested on: LOX IMVI melanoma
RPMI-8226 leukemia = tested on: RPMI-8226 leukemia
SF-295 CNS = tested on: SF-295 CNS

Row | SMILES | TGI (BT-549 breast) | TGI (CCRF-CEM leukemia) | TGI (COLO 205 colon) | TGI (HOP-62 NSCLC) | TGI (LOX IMVI melanoma) | TGI (RPMI-8226 leukemia) | TGI (SF-295 CNS) | GI50 (BT-549 breast) [µM] | GI50 (CCRF-CEM leukemia) [µM] | GI50 (COLO 205 colon) [µM] | GI50 (HOP-62 NSCLC) [µM] | GI50 (LOX IMVI melanoma) [µM] | GI50 (RPMI-8226 leukemia) [µM] | GI50 (SF-295 CNS) [µM]
1 | N=C(N)SCc1ccc(Cl)c2ccccc12 (tested in a mixture with another compound) | 29.5 µM and 30.8 µM | 26.4 µM and 17.4 µM | 23.9 µM and 19.9 µM | 24.3 µM and 30.5 µM | 33.1 µM and 36.6 µM | 18.5 µM and 7.98 µM | 24.9 µM and 23.7 µM |  |  |  |  |  |  | 
2 | COc1cc2c3c(n(CCCN)c(=O)c2cc1OC)-c1ccc(N)cc1C3=O | 8.85 µM | 7.28 µM | 10.2 µM | 4.92 µM | 2.16 µM | 49.8 µM | 37.3 µM | 1.97 | 0.389 | 0.554 | 1.55 | 0.333 | 19.5 | 3.75
3 | COc1cc(/C=C/c2cc(/C=C/c3ccc(O)c(OC)c3)n(C(=O)Nc3ccc(C)cc3)n2)ccc1O | 2.34 µM |  | 3.51 µM | 2.5 µM | 2.62 µM | 1.34 µM | 6.34 µM | 0.306 |  | 1.91 | 0.759 | 0.501 | 0.261 | 1.71
4 | O=C(O)c1cn(C2CC2)c2cc(N3CCN(C(=O)N(c4ccccc4)c4nc(-c5ccccc5)cs4)CC3)c(F)cc2c1=O | 6.81 µM | > 100 µM |  | > 45.4 µM |  |  | 3.04 µM | 0.349 | 0.276 |  | 0.462 |  |  | 0.305
5 | CN1CCN(C(=O)/C=C/c2ccc([N+](=O)[O-])o2)CC1 | 21.8 µM | 27.9 µM | 15 µM | 39.9 µM | 17 µM | 64.5 µM | > 100 µM | 10.1 | 2.72 | 3.76 | 17.1 | 4.46 | 16 | 27.9
6 | O=C1c2ccccc2-c2c1c1c(O)cccc1n2Cc1ccccc1 | 56.1 µM |  | > 100 µM | 29.8 µM | > 100 µM | > 100 µM | 18.4 µM | 20.5 |  | 47.4 | 12.1 | 10.1 | 30 | 6.12
7 | O=C(CCN1CCOCC1)Nc1ccc(Cn2nnc3c2C(=O)c2nnn(Cc4ccc(NC(=O)CCN5CCOCC5)cc4)c2C3=O)cc1 | 8.77 µM | > 100 µM | 2.13 µM | > 100 µM | 3.37 µM | > 21.1 µM | > 100 µM | 2.87 | 0.34 | 0.645 | 57.7 | 0.678 | 1.43 | > 25.7
8 | COc1cc(NC(=O)COc2ccccc2)c(C(N)=O)cc1OC | > 100 µM | > 100 µM | 5.13 µM | 24.3 µM | > 100 µM | > 100 µM | 16.6 µM | 0.77 | 0.562 | 0.453 | 1.75 | 1.81 | 2.27 | 0.93
